Measured values from US20260234211A1, “POLYPEPTIDE HAVING MODIFIED STRUCTURE AND USE THEREOF” (Guangdong Raynovent Biotech Co., Ltd., priority 2023, published 2026).
Like-named read-outs stand apart in the source and are kept apart here. Numbered stars: 1 amine (or outer) side, 2 acyl side, 3 side chain; on linkers, the order of the positions; unused ones are H or OH. Bridge positions count the residues as written; N and C are the ends. Square brackets hold non-standard residues; d marks the D form. Peptide text beside a SMILES is read from it. X2 = O=C(O)CCCCCCCCCCCCCCCCCCC(=O)N[C@@H](CCC(=O)NCCOCCOCC(=O)N[C@@H](CCC(=O)[*:2])C(=O)[*:1])C(=O)O; αMeL = CC(C)C[C@](C)(N)C(=O)O; Aib = CC(C)(N)C(=O)O

Legend:
[1] = Metabolic stability in human kidney S9; format: in vitro ADME
Method: The metabolic stability of the compounds in human kidney was evaluated to determine whether the drugs would be degraded by metabolic enzymes in the kidney to affect the efficacies and pharmacokinetics. 1. Relevant solutions were formulated. 2. a) With cofactors (NADPH & UDPGA): NADPH and UDPGA were added during the incubation. […] H2O was added into the culture solution. The final concentration of KS9 Fractions was 1 mg/mL. The mixture was pre-heated at 37° C. for 10 min. […] In this study, 7-hydroxy-coumarin and Raloxifene were used as the positive control. The final concentration of the positive control compounds was 0.2 μM, and the final concentration of the test compound was 1 μM. The culture solution was incubated in water bath at 37° C. 4. At 0.5, 5, 15, 30 and 60 min, volume aliquots were taken from the reaction solution and the reaction was stopped by adding acetonitrile. The samples were centrifuged for 30 min. The supernatant was taken and mixed with ultrapure water for subsequent LC-MS/MS analysis. 5. Data analysis: All calculation was conducted using Microsoft Excel. Peak areas were determined and slope values were calculated based on the extracted ion chromatograms.

[2] = Pharmacokinetic properties in Cynomolgus macaques; conditions: cynomolgus monkey, in vivo, male cynomolgus macaques, plasma; for AUC(0-t): read-out: AUC0-240 h; for AUC(0-inf): read-out: AUCINF; for Cmax: read-out: Cmax; for half-life: read-out: T1/2 (converted); for Tmax: read-out: Tmax
Method: To test the pharmacokinetic profiles of the compounds in Cynomolgus macaques.
Non-juvenile male cynomolgus macaques were used for experiment, 3 cynomolgus macaques for each compound. Whole blood was collected at time points of 1 h, 2 h, 4 h, 8 h, 16 h, 24 h, 48 h, 72 h, 120 h, 168 h and 240 h after administration, to prepare plasma. The drug concentration was analyzed by LC-MS/MS method, and the pharmacokinetic parameters were calculated using Phoenix WinNonlin software.

[3] = Human kidney S9 1 mg/mL, +Cofactors (NADPH & UDPGA), 37° C., read-out: in vitro CLint
[4] = Human kidney S9 1 mg/mL, +Cofactors (NADPH & UDPGA), 37° C., read-out: in vitro t1/2

Structure (SMILES) | AUC(0-t) [2] | AUC(0-inf) [2] | Cmax [2] | half-life [2] | Tmax [2] | further results
O=C(c1ccc(OCCN2CCCCC2)cc1)c1c(-c2ccc(O)cc2)sc2cc(O)ccc12 [Raloxifene, reference compound] |  |  |  |  |  | half-life at 0.2 μM ([1]; human, s9): 93.4 min; microsomal CLint at 0.2 μM ([1]; human, s9): 7.77 µL/min/mg
CC[C@H](C)[C@H](NC(=O)[C@H](Cc1ccccc1)NC(=O)[C@H](C)NC(=O)C(C)(C)NC(=O)[C@H](CCC(N)=O)NC(=O)[C@H](C)NC(=O)[C@@H]1CCCCNC(=O)CN(C(=O)COCCOCCNC(=O)CC[C@H](NC(=O)CCCCCCCCCCCCCCCCCCC(=O)O)C(=O)O)CC(=O)NCCCC[C@H](NC(=O)[C@](C)(CC(C)C)NC(=O)[C@@H](NC(=O)[C@H](CO)NC(=O)[C@H](Cc2ccc(O)cc2)NC(=O)[C@H](CC(=O)O)NC(=O)[C@H](CO)NC(=O)[C@@H](NC(=O)[C@H](Cc2ccccc2)NC(=O)[C@@H](NC(=O)CNC(=O)[C@H](CCC(N)=O)NC(=O)C(C)(C)NC(=O)[C@@H](N)Cc2ccc(O)cc2)[C@@H](C)O)[C@@H](C)O)[C@@H](C)CC)C(=O)N[C@@H](CC(=O)O)C(=O)N[C@@H](CCCCN)C(=O)N1)C(=O)N[C@@H](CCC(=O)O)C(=O)N[C@@H](Cc1ccc(O)cc1)C(=O)N[C@@H](CC(C)C)C(=O)N[C@@H](CC(C)C)C(=O)N[C@@H](CCC(=O)O)C(=O)NCC(=O)NCC(=O)N1CCC[C@H]1C(=O)N[C@@H](CO)C(=O)N[C@@H](CO)C(=O)NCC(=O)N[C@@H](C)C(=O)N1CCC[C@H]1C(=O)N1CCC[C@H]1C(=O)N1CCC[C@H]1C(=O)N[C@@H](CO)C(N)=O [Example 21, YAibQGT FTSDY SIα- MeL^1KD K^1KAQAib AFIEY LLEGG PSSGA PPPS-NH2 (SEQ ID NO: 24)] | 4.6 µM·h | 5.94 µM·h | 31.2 nM | 4.38 days | 40 h | microsomal CLint at 1 μM [1, 3]: < 3.75 µL/min/mg; half-life at 1 μM [1, 4]: > 185 min
CC[C@H](C)[C@H](NC(=O)[C@H](Cc1ccccc1)NC(=O)[C@@H]1CCCCNC(=O)CN(C(=O)[C@@H](N)CCCCNC(=O)[C@@H](N)CCCCNC(=O)CC[C@H](NC(=O)CCCCCCCCCCCCCCCCCCC(=O)O)C(=O)O)CC(=O)NCCCC[C@H](NC(=O)[C@H](CCCCN)NC(=O)[C@H](CC(=O)O)NC(=O)[C@H](CC(C)C)NC(=O)[C@](C)(CC(C)C)NC(=O)[C@@H](NC(=O)[C@H](CO)NC(=O)[C@H](Cc2ccc(O)cc2)NC(=O)[C@H](CC(=O)O)NC(=O)[C@H](CO)NC(=O)[C@@H](NC(=O)[C@H](Cc2ccccc2)NC(=O)[C@@H](NC(=O)CNC(=O)[C@H](CCC(N)=O)NC(=O)C(C)(C)NC(=O)[C@@H](N)Cc2ccc(O)cc2)[C@@H](C)O)[C@@H](C)O)[C@@H](C)CC)C(=O)N[C@@H](C)C(=O)N[C@@H](CCC(N)=O)C(=O)NC(C)(C)C(=O)N1)C(=O)N[C@@H](CCC(=O)O)C(=O)N[C@@H](Cc1ccc(O)cc1)C(=O)N[C@@H](CC(C)C)C(=O)N[C@@H](CC(C)C)C(=O)N[C@@H](CCC(=O)O)C(=O)NCC(=O)NCC(=O)N1CCC[C@H]1C(=O)N[C@@H](CO)C(=O)N[C@@H](CO)C(=O)NCC(=O)N[C@@H](C)C(=O)N1CCC[C@H]1C(=O)N1CCC[C@H]1C(=O)N1CCC[C@H]1C(=O)N[C@@H](CO)C(N)=O [Example 7, YAibQGT FRSDY SIα- MeLLD K^1KAQAib ^1KFIEY LLEGG PSSGA PPPS-NH2 (SEQ ID NO: 1)] | 3.32 µM·h | 3.96 µM·h | 24.3 nM | 3.5 days | 29.3 h | microsomal CLint [1, 3]: < 3.75 µL/min/mg; half-life [1, 4]: > 185 min
CC[C@H](C)[C@H](NC(=O)[C@H](Cc1ccccc1)NC(=O)[C@@H]1CCCCNC(=O)CC[C@H](NC(=O)COCCOCCNC(=O)CC[C@H](NC(=O)CCCCCCCCCCCCCCCCCCC(=O)O)C(=O)O)C(=O)NCCCC[C@H](NC(=O)[C@H](CCCCN)NC(=O)[C@H](CC(=O)O)NC(=O)[C@H](CC(C)C)NC(=O)[C@](C)(CC(C)C)NC(=O)[C@@H](NC(=O)[C@H](CO)NC(=O)[C@H](Cc2ccc(O)cc2)NC(=O)[C@H](CC(=O)O)NC(=O)[C@H](CO)NC(=O)[C@@H](NC(=O)[C@H](Cc2ccccc2)NC(=O)[C@@H](NC(=O)CNC(=O)[C@H](CCC(N)=O)NC(=O)C(C)(C)NC(=O)[C@@H](N)Cc2ccc(O)cc2)[C@@H](C)O)[C@@H](C)O)[C@@H](C)CC)C(=O)N[C@@H](C)C(=O)N[C@@H](CCC(N)=O)C(=O)NC(C)(C)C(=O)N1)C(=O)N[C@@H](CCC(=O)O)C(=O)N[C@@H](Cc1ccc(O)cc1)C(=O)N[C@@H](CC(C)C)C(=O)N[C@@H](CC(C)C)C(=O)N[C@@H](CCC(=O)O)C(=O)NCC(=O)NCC(=O)N1CCC[C@H]1C(=O)N[C@@H](CO)C(=O)N[C@@H](CO)C(=O)NCC(=O)N[C@@H](C)C(=O)N1CCC[C@H]1C(=O)N1CCC[C@H]1C(=O)N1CCC[C@H]1C(=O)N[C@@H](CO)C(N)=O [Example 8, YAibQGT FTSDY SIα- MeLLD K^1KAQAib ^1KFIEY LLEGG PSSGA PPPS-NH2 (SEQ ID NO: 1)] (H-Y[Aib]QGTFTSDYSI[αMeL]LDKKAQ[Aib]KFIEYLLEGGPSSGAPPPS-NH2; linker 17-21 via X2 (inferred); N-terminus assumed) |  |  |  |  |  | half-life ([1]; human, s9): > 185 min; microsomal CLint ([1]; human, s9): < 3.75 µL/min/mg
O=c1ccc2ccc(O)cc2o1 [7-Hydroxy-courmarin, 7-hydroxy-coumarin, reference compound] |  |  |  |  |  | half-life at 0.2 μM ([1]; human, s9): 101 min; microsomal CLint at 0.2 μM ([1]; human, s9): 6.84 µL/min/mg
CC[C@H](C)[C@H](NC(=O)[C@H](Cc1ccccc1)NC(=O)[C@@H]1CCCCNC(=O)CN(C(=O)COCCOCCNC(=O)CC[C@H](NC(=O)CCCCCCCCCCCCCCCCCCC(=O)O)C(=O)O)CC(=O)NCCCC[C@H](NC(=O)[C@H](CCCCN)NC(=O)[C@H](CC(=O)O)NC(=O)[C@H](CC(C)C)NC(=O)[C@](C)(CC(C)C)NC(=O)[C@@H](NC(=O)[C@H](CO)NC(=O)[C@H](Cc2ccc(O)cc2)NC(=O)[C@H](CC(=O)O)NC(=O)[C@H](CO)NC(=O)[C@@H](NC(=O)[C@H](Cc2ccccc2)NC(=O)[C@@H](NC(=O)CNC(=O)[C@H](CCC(N)=O)NC(=O)C(C)(C)NC(=O)[C@@H](N)Cc2ccc(O)cc2)[C@@H](C)O)[C@@H](C)O)[C@@H](C)CC)C(=O)N[C@@H](C)C(=O)N[C@@H](CCC(N)=O)C(=O)NC(C)(C)C(=O)N1)C(=O)N[C@@H](CCC(=O)O)C(=O)N[C@@H](Cc1ccccc1)C(=O)N[C@@H](CC(C)C)C(=O)N[C@@H](CC(C)C)C(=O)N[C@@H](CCC(=O)O)C(=O)NCC(=O)NCC(=O)N1CCC[C@H]1C(=O)N[C@@H](CO)C(=O)N[C@@H](CO)C(=O)NCC(=O)N[C@@H](C)C(=O)N1CCC[C@H]1C(=O)N1CCC[C@H]1C(=O)N1CCC[C@H]1C(=O)N[C@@H](CO)C(N)=O [Example 9, YAibQGT FTSDY SIα- MeLLD K^1KAQAib ^1KFIEF LLEGG PSSGA PPPS-NH2 (SEQ ID NO: 15)] | 3.23 µM·h | 3.64 µM·h | 30.1 nM | 3.23 days | 29.3 h | 
CC[C@H](C)[C@@H]1NC(=O)[C@H](Cc2ccccc2)NC(=O)[C@H](C)NC(=O)C(C)(C)NC(=O)[C@H](CCC(N)=O)NC(=O)[C@H](C)NC(=O)[C@@H](NC(=O)[C@H](CCCCN)NC(=O)[C@H](CC(=O)O)NC(=O)[C@H](CC(C)C)NC(=O)[C@](C)(CC(C)C)NC(=O)[C@@H](NC(=O)[C@H](CO)NC(=O)[C@H](Cc2ccc(O)cc2)NC(=O)[C@H](CC(=O)O)NC(=O)[C@H](CO)NC(=O)[C@@H](NC(=O)[C@H](Cc2ccccc2)NC(=O)[C@@H](NC(=O)CNC(=O)[C@H](CCC(N)=O)NC(=O)C(C)(C)NC(=O)[C@@H](N)Cc2ccc(O)cc2)[C@@H](C)O)[C@@H](C)O)[C@@H](C)CC)CCCCNC(=O)CN(C(=O)COCCOCCNC(=O)COCCOCCNC(=O)CC[C@H](NC(=O)CCCCCCCCCCCCCCCCCCC(=O)O)C(=O)O)CC(=O)NCCCC[C@@H](C(=O)N[C@@H](Cc2ccc(O)cc2)C(=O)N[C@@H](CC(C)C)C(=O)N[C@@H](CC(C)C)C(=O)N[C@@H](CCC(=O)O)C(=O)NCC(=O)NCC(=O)N2CCC[C@H]2C(=O)N[C@@H](CO)C(=O)N[C@@H](CO)C(=O)NCC(=O)N[C@@H](C)C(=O)N2CCC[C@H]2C(=O)N2CCC[C@H]2C(=O)N2CCC[C@H]2C(=O)N[C@@H](CO)C(N)=O)NC1=O [Example 11, YAibQGT FTSDY SIα- MeLLD K^1KAQAib AFI^1KY LLEGG PSSGA PPPS-NH2 (SEQ ID NO: 17)] |  |  |  |  |  | half-life at 1 μM ([1]; human, s9): > 185 min; microsomal CLint at 1 μM ([1]; human, s9): < 3.75 µL/min/mg
